Laboratory results taken from patent US6080755A, “1,9-diazabicyclo[4.3.0]nona-3,8-diene derivatives” (Wyeth Lederle Japan, Ltd., priority 1995, dated 2000).

System: Isolated Rat Hearts
Experiment: Cardioprotective Effect in Ischemia/Reperfusion Model of Isolated Rat Hearts
Set-up: species or system Male Sprague-Dawley rats
Settings: 10^-5 mol of test compound in 0.04% DMSO; 25 min global ischemia, after reperfusion for 30 minutes
Description: Cardioprotective Effect in Ischemia/Reperfusion Model of Isolated Rat Hearts:
Male Sprague-Dawley rats (300-500 g) were used. The rats were anesthetized using 40 mg/kg of sodium pentobarbital (i.p.) after treating with heparin (i.v. 1000 U/kg). The hearts were excised and moved quickly to a Langendorlf apparatus where they were perfused with Krebs-Henseleit bicarbonate buffer (118 mM of NaCl; 4.7 mM of KCl; 2.55 mM of CaCl2; 1.18 mM of KH2 PO4; 24.88 mM of NaHCO3; 11.1 mM of glucose) bubbled with mixture gas of 95% oxygen and 5% carbon dioxide at a constant perfusion pressure (75 mmHg). The parameters of cardiac function were determined as follows.
The physiological saline-filled latex balloon was inserted into the left ventricle and connected to a pressure transducer for measurement of left ventricular pressure (LVP). The volume of the balloon was adjusted to produce an LV end-diastolic pressure at 5-10 mmHg. The heart rate was determined with a tachometer and coronary flow was determined with an extra-corporeal electromagnetic flow tube.
For the equilibration, the hearts were perfused for initial 15-20 minutes. Then, treatment with the test compounds was begun 15 minutes before the onset of ischemia. Global ischemia was initiated by shutting off the perfusate flow and this was maintained for 25 minutes. The hearts were submerged in 37° C. buffer during ischemia. Reperfusion was then begun with the test compounds and the hearts were allowed to recover for 30 minutes. The cardiac function was measured before the treatment of the test compounds, before ischemia and after reperfusion. The hearts were treated with 10^-5 mol of the test compounds dissolved in 0.04% of dimethylsulfoxide (DMSO), in comparison with the vehicle, i.e., 0.04% of DMSO alone, in the perfusate.
The cardioprotective effects of the test compounds were evaluated on the basis of the extent of recovery of LVP after reperfusion for 30 minutes.

Compound	LVDP(%): recovery of LVP, left ventricular developed pressure against the LVP before ischemia as 100%
6,8-Diethoxycarbonyl-3(or 4)-methy-1,9-diazabicyclo [4.3.0]nona-3,8-dien-7-ol [Compound No. 35]	50.6%
CCOC(=O)C1=NN2CC(C)=C(C)CC2(C(=O)OCC)C1O (centres unmarked) [Compound No. 29, 6,8-Diethoxycarbonyl-3,4-dimethylbicyclo[4.3.0]-1,9-diazanona-3,8-dien-7-ol]	44.2%
COC(=O)C1=NN2C(c3ccccc3)C=CC(c3ccccc3)C2(C(=O)OC)C1O (centres unmarked) [Compound No. 31, 6,8-Dimethoxycarbonyl-2,5-diphenyl-1,9-diazabicyclo [4.3.0]nona-3,8-dien-7-ol]	85.1%
COC(=O)C1=NN2C(c3cccc([N+](=O)[O-])c3)C=CC(c3cccc([N+](=O)[O-])c3)C2(C(=O)OC)C1O (centres unmarked) [Compound No. 48, 6,8-Dimethoxycarbonyl-2,5-bis(3-nitrophenyl)-7-hydroxy-1,9-diazabicyclo[4.3.0]nona-3,8-diene]	72.4%
COC(=O)C1=NN2C(c3ccc(C#N)cc3)C=CC(c3ccc(C#N)cc3)C2(C(=O)OC)C1O (centres unmarked) [Compound No. 50, 6,8-Dimethoxycarbonyl-2,5-di(4-cyano)phenyl-7-hydroxy-1,9-diazabicyclo[4.3.0]nona-3,8-diene]	69.8%
COC(=O)C1=NN2C(c3ccc(C(C)=O)cc3)C=CC(c3ccc(C(C)=O)cc3)C2(C(=O)OC)C1O (centres unmarked) [Compound No. 51, 2,5-Bis-(4-acetylphenyl)-6,8-dimethoxycarbonyl-7-hydroxy-1,9-diazabicyclo[4.3.0]nona-3,8-diene]	55.0%
COC(=O)C1=NN2C(c3ccc(C)cc3)C=CC(c3ccc(C)cc3)C2(C(=O)OC)C1O (centres unmarked) [Compound No. 52, 6,8-Dimethoxycarbonyl-2,5-di-p-tolyl-7-hydroxy-1,9-diazabicyclo[4.3.0]nona-3,8-diene]	49.3%
COC(=O)C1=NN2C(c3ccc([N+](=O)[O-])cc3)C=CC(c3ccc([N+](=O)[O-])cc3)C2(C(=O)OC)C1O (centres unmarked) [Compound No. 53, 6,8-Dimethoxycarbonyl-2,5-di(4-nitro)phenyl-7-hydroxy-1,9-diazabicyclo[4.3.0]nona-3,8-diene]	60.0%
CCOC(=O)C1=NN2CC(C)=C(C)CC2(C(=O)OCC)C1N (centres unmarked) [Compound No. 81, 7-Amino-6,8-diethoxycarbonyl-3,4-dimethyl-1,9-diazabicyclo[4.3.0]nona-3,8-diene]	56.2%
CCOC(=O)C1=NN2CC(C)=C(C)CC2(C(=O)OCC)C1S (centres unmarked) [Compound No. 82, 6,8-Diethoxycarbonyl-3,4-dimethyl-7-mercapto-1,9-diazabicyclo[4.3.0]nona-3,8-diene]	61.5%
COC(=O)C1=NN2C(c3ccccc3)C=CC(c3ccccc3)C2(C(=O)OC)C1N (centres unmarked) [Compound No. 94, 7-Amino-6,8-dimethoxycarbonyl-2,5-diphenyl-1,9-diazabicyclo[4.3.0]nona-3,8-diene]	73.5%
CCCOC(=O)C1=NN2CC(C)=C(C)CC2(C(=O)OCCC)C1O (centres unmarked) [Compound No. 124, 3,4-Dimethyl-6,8-dipropoxycarbonyl-7-hydroxy-1,9-diazabicyclo[4.3.0]nona-3,8-diene]	84.0%
CCCOC(=O)C1=NN2C(c3ccccc3)C=CC(c3ccccc3)C2(C(=O)OCC)C1O (centres unmarked) [Compound No. 139, 2,5-Diphenyl-6-ethoxycarbonyl-7-hydroxy-8-propoxycarbonyl-1,9-diazabicyclo[4.3.0]nona-3,8-diene]	62.5%
CCN(CC)C(=O)C1=NN2C(c3ccccc3)C=CC(c3ccccc3)C2(C(=O)OC)C1O (centres unmarked) [Compound No. 173, 8-Diethylcarbamoyl-2,5-diphenyl-7-hydroxy-6-methoxycarbonyl-1,9-diazabicyclo[4.3.0]nona-3,8-diene]	61.0%
